Data published in patent US20260317332A1, “BICYCLIC HETEROCYCLE COMPOUNDS FOR THE TREATMENT OF CANCER” (Hoffmann-La Roche Inc., priority 2023, published 2026).

Experiments:
CD73 [1] = biological target: T1, CD73 (Homo sapiens, UniProt P21589); assay: Human CD73 Biochemical Assay; details: 0.05 nM recombinant CD73; AMP 5.56 μM final; 10 min at room temperature; LC/MS adenosine readout; read-out: Enzymatic IC50 against human CD73
T1 sequence (P21589 27-574): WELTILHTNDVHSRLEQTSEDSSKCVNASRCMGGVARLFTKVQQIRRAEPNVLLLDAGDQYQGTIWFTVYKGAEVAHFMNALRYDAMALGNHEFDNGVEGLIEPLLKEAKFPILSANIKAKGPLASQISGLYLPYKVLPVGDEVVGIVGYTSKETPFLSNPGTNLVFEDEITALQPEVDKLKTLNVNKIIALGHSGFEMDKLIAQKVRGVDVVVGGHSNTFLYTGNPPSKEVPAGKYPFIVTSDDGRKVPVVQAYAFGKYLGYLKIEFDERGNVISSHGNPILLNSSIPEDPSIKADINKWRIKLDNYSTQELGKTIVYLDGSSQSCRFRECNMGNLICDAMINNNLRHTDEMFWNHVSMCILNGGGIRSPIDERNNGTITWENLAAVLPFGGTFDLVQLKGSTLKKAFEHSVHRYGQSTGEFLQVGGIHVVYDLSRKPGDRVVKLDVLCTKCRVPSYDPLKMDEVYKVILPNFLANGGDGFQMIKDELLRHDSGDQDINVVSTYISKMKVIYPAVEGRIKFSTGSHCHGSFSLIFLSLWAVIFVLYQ
How it was run: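 Recombinant CD73 at 0.05 nM was preincubated with compound 15 min at room temperature in Tris pH 7.5 buffer with 1 mM NaH2PO4. Reaction ran 10 min with 5.56 μM AMP final and was stopped with TCA. Adenosine was quantified by LC-MS/MS MRM against a 13C5-adenosine internal standard using peak area ratios.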

CD73 [2] = biological target: T1, CD73; assay: CD73 Cellular Assay; type: cell-based; design: 40 μL of MDA-MB-231 cells (ATCC, HTB-26, breast cancer); host or cells: MDA-MB-231; details: MDA-MB-231 cells; 200 μM AMP working solution; 45 min at 37° C.; malachite readout; read-out: Cellular IC50 against CD73
How it was run: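 MDA-MB-231 cells (20,000 cells/mL) in HEPES pH 7.4 buffer preincubated 30 min with 1:3 compound dilutions, then AMP (200 μM working solution) added for 45 min at 37 °C, 5% CO2. Released phosphate in supernatant detected by malachite green absorbance at 620 nm; % inhibition normalised to neutral and inhibitor controls.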

CD4+ T cells = assay: T Cell Proliferation Assay: CD4+ T cell proliferation; type: cell-based; details: Homo sapiens, high AMP condition (200 μM AMP, 5 μM EHNA), CD3/CD28 beads, 72 hours, read-out: CD4+ T cell proliferation EC50 (rescue of proliferation)
Experimental: (§1) The purpose of this assay is to characterize the potency of inhibitors of CD73 in rescuing adenosine-mediated inhibition of T cell proliferation. CD4+ or CD8+ T cells were isolated from peripheral blood mononuclear cells (PBMCs, HemaCare) by immunomagnetic negative selection using EasySep™ Isolation Kit (STEMCELL Technologies) following the supplier's protocol. Pan T cells were pelleted by centrifugation at 300 gravitational force (g) for 5 minutes at room temperature and re-suspended in PBS. CellTrace™ Violet staining solution (Invitrogen) was added at 1:5,000 and incubated at 37° C. for 20 minutes, protected from light. Complete culture medium [RPMI-1640 (Gibco), 10% Fetal Bovine Serum (Gibco), 2 mM GlutaMAX (Gibco) and 1 mM Sodium Pyruvate (Gibco), 100 U/mL Penicillin-Streptomycin (Gibco) and MEM non-essential amino acids (NEAA) cell culture supplement (1:100, Gibco)] was then added, mixed, and incubated at 37° C. for 5 minutes. Cells were then pelleted by centrifugation at 300 g for 5 minutes at room temperature and re-suspended in fresh, pre-warmed complete culture medium. 50 μL of cells were seeded per well in 96 well u-bottom plates. 50 μL of CD3/CD28 beads-containing medium and 50 μL of media containing compounds were added into cells. 50 μL of media containing AMP and EHNA hydrochloride (Sigma-Aldrich) was added into cells at 200 μM and 5 μM final concentration, respectively. Cells were incubated for 72 hours at 37° C. in a 5% CO2 incubator. 200 μL of PBS was then added to each well and cells were centrifuged at 300 g, 4° C. for 10 minutes. The supernatant was discarded. 50 μL of Human TruStain FcX™ (Fc Receptor Blocking Solution, BioLegend) diluted 1:100 in PBS was added to each well, mixed gently and incubated for 20 minutes at 4° C. 50 μL of staining solution (BioLegend) was added to each well, mixed gently and incubated at 4° C. for 30 minutes. Cells were centrifuged at 300 g, 4° C. for 10 minutes and the supernatant was discarded. The cell pellets were washed with 250 μL of cell staining buffer and centrifuged at 300 g, 4° C. for 10 minutes. The supernatant was discarded and cells were re-suspended in 60 μL of cell staining buffer and analyzed on a flow cytometer.

CD8+ T cells = assay: T Cell Proliferation Assay: CD8+ T cell proliferation; type: cell-based; details: high AMP condition (200 μM AMP, 5 μM EHNA), CD3/CD28 beads, 72 hours, read-out: CD8+ T cell proliferation EC50 (rescue of proliferation)
Experimental: as §1

## COCCOc1cc([C@@H](Oc2nn(C)c3nnc(-c4c[nH]c(=O)[nH]c4=O)cc23)C(F)F)ccn1 [Example 28, 5-[3-[(1R)-2,2-difluoro-1-[2-(2-methoxyethoxy)-4-pyridyl]ethoxy]-1-methyl-pyrazolo[3,4-c]pyridazin-5-yl]-1H-pyrimidine-2,4-dione]
CD73 [1]
  IC50: 50 pM
CD73 [2]
  IC50: 630 pM
CD4+ T cells
  EC50: 330 pM
CD8+ T cells
  EC50: 560 pM
